What was measured:
Plasma stability, mouse = type: in vitro ADME; conditions: percent remaining at 3 hours
Method: Stability of compounds in human plasma (BioChemed Services) and mouse plasma (BioChemed Services) were determined. All liquid was dispensed and transfer steps were performed with the FREEDOM EVO automated liquid handler (Tecan US). Plasma was allowed to thaw at room temperature prior to preparing the assay solution of plasma:1×PBS (1:1). The assay solution was warmed up at 37° C. prior of adding the compound. Immediately after compounds were added, time 0 minute aliquots were promptly collected and mixed with cold acetonitrile (spiked with an internal standard). The remainder of the reaction volume was incubated at 37° C. with shaking. Additional aliquots were collected 180 minutes after the start of the reaction and promptly quenched with cold acetonitrile (spiked with an internal standard). Samples were centrifuged at 3000 rpm for 10 minutes. The amount of compound in the supernatant was determined by LC/MS/MS (Applied Biosystems, Sciex API4000 Q-TRAP) and the percent of parent compound remaining after 180 minutes was calculated by the following formula: % parent compound remaining=[(concentration at 180 minutes/concentration at 0 minutes)×100]. Results reported are the mean of each reaction duplicate, normalized to the internal standard, and expressed as a percent of compound remaining after the incubation time. […]

[1] = Hepatic microsome stability, mouse; type: in vitro ADME; conditions: percent remaining at 1 hour
Method: (§1) Metabolic stability was assessed in the presence of human liver microsomes (XenoTech) and mouse liver mirosomes (XenoTech). All liquid was dispensed and transfer steps were performed with the FREEDOM EVO automated liquid handler (Tecan US). NADPH, a required cofactor for CYP450 metabolism, was provided by the NADPH Regenerating System, Solutions A (BD Biosciences) and B (BD Biosciences). Compound stock solutions were initially prepared in 100% DMSO and subsequently diluted in acetonitrile for the assay. The pH of the reactions was kept at ˜7.4 with potassium phosphate buffer (BD Biosciences). The reactions were started after adding NADPH to the reaction plate containing microsomes and compounds and time 0 minutes aliquots were promptly collected and mixed with ice cold acetonitrile (spiked with internal standards) to quench the reactions. The remainder of the reaction volume was incubated at 37° C. with shaking. […] The amount of compound in the supernatant was determined by LC/MS/MS (Applied Biosystems, Sciex API4000 Q-TRAP) and the percent of parent compound remaining after 60 minutes was calculated by the following formula: % parent compound remaining=[(concentration at 60 minutes/concentration at 0 minutes)×100]. […] Results reported are the mean of each reaction triplicate, normalized to the internal standard, and expressed as a percent compound remaining after the incubation time. […]

[2] = Hepatic microsome stability, human; type: in vitro ADME; conditions: percent remaining at 1 hour
Method: as §1

HCV replicon RNA = experiment: HCV RNA RT-qPCR assay in replicon cells; type: cell-based, hepatitis C virus; conditions: qRT-PCR, 10 days of treatment
Method: For the HCV RNA reverse transciptase quantitative PCR (RT-qPCR) assay, cells were treated, washed 2 times with PBS, harvested, and collected by centrifugation (1000 g) for 5 minutes at 4° C. Total RNA was then extracted using the TRIZOL kit (Invitrogen) and suspended in 30 μL of nuclease-free water. RNA concentration was determined from A260. RT-qPCR was performed using TAQMAN probes, 1 μg total RNA and the QSCRIPT One-step Fast qRT-PCR kit (Quanta Biosciences, Gaithersburg, Md.). Reverse transcription was carried out at 50° C. for 20 minutes followed by one cycle at 95° C. for 5 minutes and 40 cycles at 95° C. for 15 seconds and 60° C. for 1 minute. […] The amount of HCV RNA in each sample was determined by first calculating the ΔCT of each sample, which was obtained by subtracting the threshold cycle (CT) obtained with the rRNA primers obtained from that of the CT with the HCV primers. ΔΔCT values were obtained by subtracting ΔCT values obtained in the presence of compound from ΔCT obtained with cells treated with DMSO only. The relative changes in HCV RNA levels were then calculated by assuming that each CT difference reflected a two-fold difference in RNA level (i.e., Expression=2^−ΔΔCT).

[3] = system: NS5A in Huh7.5/HCV Con1sg Rluc replicon cells; experiment: Western blot of NS5A in replicon cells; type: cell-based, hepatitis C virus; conditions: 4-day exposure
Method: To analyze effects on HCV proteins expression by western blot, Huh7.5/HCV Con1sg Rluc replicon stable cells were washed with PBS, harvested in PBS, and lysed with RIPA buffer for 20 minutes on ice and cleared lysates were obtained by centrifugation at 14,000 rpm for 20 minutes at 4° C. Protein concentrations were determined with the BIO-RAD protein assay kit (Bio-Rad) and 15 μg total proteins was resolved on 10% sodium dodecyl sulfate-polyacrylamide gel electrophoresis (SDS-PAGE) and transferred to nitrocellulose membrane. The blots were probed with primary anti-NS5A mAb (Meridian life Sciences, Saco, Me.) and a peroxidase-conjugated secondary antibody (Cell Signaling, Danvers, Mass.) and were developed with enhanced chemiluminescence (ECL) detection reagents (Pierce, Rockford, Ill.). The blots were stripped and probed again with primary anti-tubulin antibody (Sigma) to confirm equal loading of protein and a peroxidase-conjugated anti-mouse secondary antibody (Cell Signaling) and developed with ECL reagents (Pierce).
To further characterize the anti-viral activity of this class of compounds, HCV Renilla luciferase (Rluc) subgenomic replicon cells were exposed to different concentrations of compound 24 and the effect of compound 24 on HCV replication was assessed on HCV Rluc reporter gene activity. […]

Structure (SMILES) | Plasma Stability Mouse (Plasma stability, mouse) [%] | Hepatic Microsome Stability Mouse [1] [%] | Hepatic Microsome Stability Human [2] [%] | decrease of HCV replicon RNA content (HCV replicon RNA) | cellular NS5A levels [3]
Cc1ccc2nc(-c3ccc4nc(-c5ccc(NC(=O)c6cccc(Cl)c6)cc5)sc4c3)sc2c1S(=O)(=O)O [Compound 17, 2′-(4-(3-chlorobenzamido)phenyl)-6-methyl-[2,6′-bibenzo[d]thiazole]-7-sulfonic acid] | 95.0 | 83.11 | 83.57 |  | 
Cc1ccc2nc(-c3ccc4nc(-c5ccc(NC(=O)c6cc(C(F)(F)F)cc(C(F)(F)F)c6)cc5)sc4c3)sc2c1S(=O)(=O)O [Compound 24, 2′-(4-(3,5-bis(trifluoromethyl)benzamido)phenyl)-6-methyl-[2,6′-bibenzo[d]thiazole]-7-sulfonic acid] |  |  |  | about 13 fold | reduced NS5A levels in a time-dependent manner
